For two molecules, IC50 and ED50 results are on record in patent US5612352A, “Heterocyclic compounds” (Zeneca Limited, priority 1992, dated 1997).

Each structure is given as a SMILES string. pIC50: −log10 of the molar value.

One assay has as its target T1, Squalene Synthase (Rattus norvegicus, UniProt Q02769).
T1 construct: from tissue; host or cells: rat liver microsomes
T1 sequence (Q02769 1-416): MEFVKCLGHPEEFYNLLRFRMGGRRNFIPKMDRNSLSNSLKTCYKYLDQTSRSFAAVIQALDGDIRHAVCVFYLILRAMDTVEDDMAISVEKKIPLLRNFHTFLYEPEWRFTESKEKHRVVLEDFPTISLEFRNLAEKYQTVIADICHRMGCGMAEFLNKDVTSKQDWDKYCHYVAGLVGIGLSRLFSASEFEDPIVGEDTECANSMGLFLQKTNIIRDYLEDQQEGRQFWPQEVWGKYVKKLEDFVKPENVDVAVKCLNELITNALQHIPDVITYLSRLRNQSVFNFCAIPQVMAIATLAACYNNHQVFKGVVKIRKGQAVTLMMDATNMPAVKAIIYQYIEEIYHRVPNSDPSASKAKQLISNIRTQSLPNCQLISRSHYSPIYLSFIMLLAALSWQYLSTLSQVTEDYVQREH
Nature of the assay: Inhibition of Squalene Synthase (formation of squalene from tritiated farnesyl pyrophosphate, rat liver microsomal protein). It is filed as biochemical. The conditions noted are these: rat liver microsomes, 20 μM 1-[3H]-farnesyl pyrophosphate, 37° C., 15 minutes; read-out: IC50 (concentration which results in a 50% inhibition of squalene production). On the procedure: (a) Inhibition of Squalene Synthase
In this test, the ability of a compound to prevent the . formation of squalene from a radioactive substrate (tritiated farnesyl pyrophosphate) is assessed.
The test compound is incubated at a concentration of 25 micromolar in 200 μl of a buffered solution containing potassium phosphate (50 mM), MgCl2 (4.95 mM), KF (9.9 mM), NADPH (0.9 mM) and rat liver microsomal protein (20 μg). Rat liver microsomes are prepared by the method described in published European Patent Application No. 324,421 and stored in liquid nitrogen prior to assay. Assay vials are kept at 37° C. throughout the incubation.
The reaction is started with the addition of the substrate (1-[^3 H]-farnesyl pyrophosphate), final concentration 20 μM, and stopped after 15 minutes reaction time with the addition of 50 μl of 4% KOH. The reaction products are separated from unreacted substrate after application to a C-18 octadecyl 1ccBond column (Analytichem Int product No. 617101). An aqueous fraction is eluted with 250 μl of 0.1M KOH. Squalene is then eluted with 1.0 ml 10% ethylacetate in hexane and radioactivity determined. The difference in radioactivity in the presence and absence of the test compound is used to determine the level of inhibition. […] The IC50 can then be determined from a plot of percentage inhibition against concentration of test compound.

Assay [1] relates to de novo hepatic cholesterol synthesis. Nature of the assay: Acute Rat Cholesterol Synthesis Assay (de novo hepatic cholesterol synthesis from exogenously administered 14C-acetate). It is filed as in vivo. Particulars: female rats, oral gavage, ip or iv dosing (route not given), [2-14C]-acetate ip 1 hour after dose, blood after a further hour. The protocol: (b) Acute Rat Cholesterol Synthesis Assay
This is an acute in vivo test in the rat to measure de novo hepatic cholesterol synthesis from exogenously administered ^14 C-acetate.
Female rats (35-55 g) are housed in reverse lighting conditions (red light from 0200h-1400h) for a period of about 2 weeks prior to test. Animals are allowed free access to chow and drinking water throughout this period. At test, animals should weigh 125-150 g.
Test compounds may be administered by oral gavage, dissolved or suspended in 0.5% polysorbate, or by ip or iv dosing. Control animals receive vehicle alone. After 1 hour the rats are injected ip with 25 μCi [2-^14 C]-acetate (NEN DUPONT. specific activity, 45-60 mCi/mmol NEC-085H, or AMERSHAM specific activity, 50-60 mCi/mmol CFA 14) in a volume of 0.25 ml saline (100 μCi/ml). After a further hour, rats are terminally anaesthetised with halothane and a blood sample obtained from the abdominal vena cava.
1 ml of plasma is lyophilised and then saponified in 2 ml ethanolic KOH (1 part 33% KOH, 9 parts ethanol) at 75° C. for 2 hours. After addition of an equal quantity of water, non-saponifiable lipids are extracted with two 5 ml volumes of hexane. The hexane extracts are evaporated to dryness and the residues dissolved in ethanol to determine cholesterol specific radioactivity. ED50 values can be determined in the standard way.

As usually defined, the ED50 is the dose at which the effect has come halfway, by size or by number of responders. A lower ED50 goes with an effect at a small dose.

On to `OC1C2CCN(CC2)C1Cc1ccc(-c2ccccc2)cc1` (stereo not drawn) [Example 2, 2-(4-biphenylmethyl)-3-quinuclidinol], for which, on Squalene Synthase, the pIC50 is 6.92.
For `c1ccc(-c2ccc(SC3CN4CCC3CC4)cc2)cc1` (stereo not drawn) [Example 10, 3-(4-biphenylthio)quinuclidine], the pIC50 on Squalene Synthase is 7.68. Moreover, it took a dose of 46 mg/kg to reach the 50% effect level in assay [1] (ED50).
